Literature values, collected in patent US9433581B2, “Poly(vinyl benzoate) nanoparticles for molecular delivery” (University of South Florida, priority 2010, dated 2016).

Details: octanol/water, reported in the literature

| Compound | Log P |
| --- | --- |
| 5(6)-carboxyfluorescein | 5.43 |
| CCN(CC)c1ccc2cc(-c3nc4ccccc4s3)c(=O)oc2c1 [Coumarin-6, coumarin-6] | −3.45 |
